Experiments:
[1] = tested on: Botrytis cinerea; experiment: Botrytis cinerea Test (Roses)/Preventive (field trial); settings: young rose plants in the field, sprayed twice five days apart, leaves and stems evaluated fifteen days after second application; B9 (RHAPSODY) 2 mL/L, F196 (SCALA) 1.25 mL/L, combination 2 mL/L + 1.25 mL/L
Procedure: The application rate of Bacillus subtilis AQ713 refers to the amount of (1.34%) Bacillus subtilis AQ713 (NRRL Accession No. B-21661) (i.e., spore preparation) contained in a formulation of AQ713.
The rose plants were grown in the field under conditions where disease pressure from Botrytis cinerea was present. Each treatment was applied twice to the plants at intervals five days apart. The efficacy of the treatments in preventing Botrytis infection on the leaves and stems of the plants was evaluated fifteen days after the second application.

[2] = tested on: Alternaria solani; experiment: Alternaria Test (Tomatoes)/Preventive; assay type: in vivo; settings: young tomato plants sprayed preventively, evaluated 3 days after inoculation; application rate B19 500 ppm, F206 100 ppm, B19 + F206 500 + 100 ppm (1:0.2); 0% = untreated control, 100% = no disease
From the text: A solution comprising 8.5×10^8 CFU/g (1.34%) of this strain was used.

Compound	Efficacy in % Found (activity observed) [1]	Efficacy in % Found (activity observed) [2]
Cc1cc(C)nc(Nc2ccccc2)n1 [F196 pyrimethanil, pyrimethanil]	40%	–
C#CCOc1ccc(CCNC(=O)C(OCC#C)c2ccc(Cl)cc2)cc1OC (centres unmarked) [F206 mandipropamid, mandipropamid]	–	0%

— US20140309107A1
